The subject of one test is Musca domestica. Put plainly: Coated vial test against adult house fly. As to the method: This test is designed to evaluate the activity of test compounds against the house fly. Test compounds are dissolved in 100% acetone to 1000, 300, 100, 10 and 1 ppm. 100 µL of each of these dilutions is added to the bottom of a 20 mL glass scintillation vial with a pipettor. The vial is allowed to dry under a fume hood for 15 minutes. The vial is then turned on its side, and 250 µL of each dilution is applied to the sides of the vial. The vial is placed on a rolling machine and allowed to roll under the hood, coating the sides of the vial, until the acetone completely evaporates. The bottom of the vial measures 4.909 cm^2 and the sides measure 4.5 cm high x 8.8 cm around, so that the total coated area of the scintillation vial measures 44.51 cm^2. The amount of test compound applied by each dilution equals 7.86, 2.36, 0.79, 0.079, and 0.0079 µg/cm^2, respectively. Included in all tests are two to three replications of untreated vials. Adult house flies which are five to seven days old are chilled in a freezer for five minutes to immobilize, and are placed on a sorting platform which provides a steady stream of CO2 to keep the flies immobile. Five flies are counted into each scintillation vial with forceps. The top of the vial is plugged with a wad of sheet cotton sufficient to contain the flies. These tests are done in replicates of two to four so that there are 10 to 20 flies per rate/compound. Mortality readings are taken 1 and 4 hours after placing the flies in the vials. Flies which are unable to stand when disturbed are considered dead. Percent mortality is then calculated for each treatment.

Another test concerns Dermacentor variabilis. Kind of test: Contact activity against larval American dog tick (coated vial). As to the method: This test is designed to evaluate the contact activity of test compounds against the American dog tick. Test compounds are dissolved in 100% acetone to 1000, 300, 100, 10, 1 and 0.1 ppm. 100 µL of each of these dilutions is added to the bottom of a 20 mL glass scintillation vial with a pipettor. The vial is allowed to dry under a fume hood for 15 minutes. The vial is then turned in its side, and 250 µL of each dilution is applied to the sides of the vial. The vial is placed on a rolling machine and allowed to roll under the hood, coating the sides of the vial, until the acetone completely evaporates. The bottom of the vial measures 4.909 cm^2 and the sides measure 4.5 cm high x 8.8 cm around, so that the total coated area of the scintillation vial measures 44.51 cm^2. The amount of test compound applied by each dilution equals 7.86, 2.36, 0.79, 0.079, 0.0079 and 0.00079 µg/cm^2, respectively. Unfed larval dog ticks are counted into the scintillation vials with a slightly damp paintbrush. Ten ticks are placed in each vial. These tests are done in replicates of two or three so that there are 20 to 30 ticks per rate/compound. Mortality readings are taken 4 and 24 hours after placing the ticks in the vials. To read the test, the vial is placed under a magnifying glass and tapped gently. […] Percent mortality is then calculated for each treatment.

Setting [1] is: dose 0.079 µg/cm^2, 4 hours, read-out: 4 Hour % Mortality.
The mark [2] stands for this setting: dose 0.790 µg/cm^2, 4 hours, read-out: 4 Hour % Mortality.
The mark [3] stands for this setting: dose 2.360 µg/cm^2, 4 hours, read-out: 4 Hour % Mortality.

Read-outs that look alike come from different tables or passages of the source.

The term mortality denotes the percentage killed.

Regarding `CCOc1ccc(C(/C(F)=C/Cc2ccc(F)c(Oc3ccccc3)c2)C2CC2)cc1` (centres unmarked) [Compound 10, 1-[1-(p-Ethoxyphenyl)-2-fluoro-4-(4-fluoro-3-phenoxyphenyl)-2-butenyl]cyclopropane, (Z)-], the mortality at 0.079 µg/cm2 in the test on Musca domestica (dose 0.079 µg/cm^2, 1 hour, read-out: 1 Hour % Mortality) was found to be 20%; in the test with Musca domestica (setting [1]), 60%; in the test on Dermacentor variabilis (setting [1]), 100%; in the test on Dermacentor variabilis (dose 0.079 µg/cm^2, 24 hours, read-out: 24 Hour % Mortality), 100%. The mortality at 0.79 µg/cm2 in the test on Musca domestica (dose 0.790 µg/cm^2, 1 hour, read-out: 1 Hour % Mortality) stood at 20%; with Musca domestica (setting [2]), 75%; in the test with Dermacentor variabilis (setting [2]), 100%; in the test on Dermacentor variabilis (dose 0.790 µg/cm^2, 24 hours, read-out: 24 Hour % Mortality) it was 100%. For the same compound, the mortality at 2.36 µg/cm2 was 40% in the test on Musca domestica (dose 2.360 µg/cm^2, 1 hour, read-out: 1 Hour % Mortality); 100% in the test with Musca domestica (setting [3]); 100% in the test with Dermacentor variabilis (setting [3]); 100% in the test on Dermacentor variabilis (dose 2.360 µg/cm^2, 24 hours, read-out: 24 Hour % Mortality). Besides, the mortality at 7.86 µg/cm2 in the test on Dermacentor variabilis (dose 7.860 µg/cm^2, 4 hours, read-out: 4 Hour % Mortality) came to 100%; in the test on Dermacentor variabilis (dose 7.860 µg/cm^2, 24 hours, read-out: 24 Hour % Mortality) it was 100%.

The record behind these values is patent EP0933027A1, “Methods and compositions for protecting animals and humans against attack and infestation by arthropod and helminth parasites” (American Cyanamid Company, priority 1998, dated 1999).
